These results are taken from patent US7964598B2 (The J. David Gladstone Institutes, priority 1995, dated 2011).

In test [1] the test system is Neuro-2a cells. The experiment in a line: Metabolism of apoE-enriched β-VLDL by Neuro-2a cells. The test is classed as cell-based, mouse. The settings on record: for enhancement of cell association of β-VLDL: 125I-β-VLDL enriched with apoE; for cell association: purified 125I-apoE-enriched β-VLDL; for increase of cellular cholesterol content: β-VLDL enriched with apoE, compared with β-VLDL alone. Here is the method: Rabbit β-VLDL (d<1.006 g/ml) were isolated from the plasma of New Zealand White rabbits fed a high-fat, high-cholesterol diet for 4 days. The ratio of cholesterol to protein in this β-VLDL ranged from ˜15 to 20:1. Human apoE-enriched β-VLDL were prepared by incubating apoE with β-VLDL at 37° C. for 1 h. For some experiments, the apoE-enriched β-VLDL were reisolated by fast-performance liquid chromatography as follows. Either ^125I-β-VLDL and unlabeled apoE or ^125I-apoE and unlabeled β-VLDL were mixed in a 1:1.5 ratio of β-VLDL protein to apoE and incubated at 37° C. for 1 h. The mixture (250 μl) was then fractionated by chromatography on a Superose 6 column (Pharmacia Fine Chemicals, Uppsala, Sweden, 10/50 HR). The flow rate was 0.5 ml/min, and 0.5 ml fractions were collected. The elution profile was monitored by quantitation of ^125I and cholesterol.
Cultured cells were grown to ˜100% confluence, washed twice with fresh serum-free medium, and incubated at 37° C. with apoE-enriched β-VLDL. Before addition to the cells, the β-VLDL and apoE were incubated together (5 and 7.5 μg of protein, respectively, unless otherwise indicated) for 1 h at 37° C. Some cells were incubated with 50 μM chloroquine, and inhibitor of lysosomal protease, at 37° C. for 2 h before addition of the apoE-enriched β-VLDL. At the times indicated, the cells were placed on ice, and the medium was assayed for protein degradation products. For the cell association studies, Neuro-2a cells were washed five times on ice with 0.1 M PBS containing 0.2% bovine serum albumin and once with 0.1 M PBS. Cell-associated ligand represents both bound and internalized material. The fibroblasts were washed three times with DMEM-Hepes on ice and incubated with 10 mM suramin at 4° C. for 30 min to remove surface-bound ligand. The radioactivity remaining within the cells represents that which was “internalized.” After washing, the cells were dissolved in 0.1 N NaOH for measurement of radioactivity and protein concentration.
The cells were then washed and solubilized with 0.1 N NaOH, and the cell-associated DiI, which is proportional to the total amount of lipoprotein metabolized (bound, internalized, and degraded), was assayed.

Test [2] concerns emulsion particles. The experiment in a line: Control emulsion binding assays without compounds. The settings on record: n = 9; no compound. On the procedure: Preparation of emulsion particles. Triolein (160 mg) and L-alpha-Phosphatidylcholine (40 mg) are combined and dried under nitrogen. After the addition of 8 mls of buffer (10 mM Tris, 100 mM KCl, 1 mM EDTA, pH 8.0), the mixture is sonicated in a water bath to obtain a heterogeneous mix of emulsion particles. The particles are harvested by ultracentrifugation (TLA 100.2 rotor, 30,000 rpm for 30 minutes) and the subsequent lipid cake is removed by tube slicing and resuspended in 100 μt 20 mM Phosphate Buffer (PB). Triolein and phospholipid content are measured and total emulsion particle concentration is determined.
Radiolabelling Freshly denatured and renatured Apolipoprotein E3 and E4 are radiolabelled using Bolton-Hunter Reagent [^125I] (ICN). Specific Activity is determined using Lowry method and Gamma 8000 counter.
Binding Affinity Assay. […] In glass tubes, 25 μg of protein (with iodinated tracer) was reduced with 1% β-mercaptoethanol. Two hundred and fifty μg of emulsion particles and 2.5 μl of compound (10 mM stock) were added and the final mixture was brought up to 250 μl with 20 mM phosphate buffer (PB). The reaction mixture was then incubated in a 37° C. water bath for 2 hours before being transferred to 1.5 ml ultracentrifuge tubes. Finally, 50 μl of 60% sucrose was mixed with the sample and 400 μl 20 mM PB was carefully layered on top. Using a TLA 100.2 rotor, the tube was spun at 30,000 rpm for 30 minutes and subsequently cut to separate the floating emulsion particle layer from the free protein at the bottom of the tube. These fractions were then combined with the respective half of the actual tube and counted using a Gamma-8000.

Consider “apoE3: human apolipoprotein E3 isoform, also iodinated”, for which, in test [1], the “enhancement of cell association of β-VLDL” value is reported as about 1.7 fold and the “increase of cellular cholesterol content” value is reported as about 1.5 fold. Also, the cell association in test [1] (2 h) is given as 58 ng/mg of cell protein. Also, in test [1] (4 h), the cell association was 101 ng/mg of cell protein. In test [2], the Mean % bound is given as 29.8%, the Mean % free turned out to be 70.2%, the Median % bound worked out at 33% and the Median % free is 67%. For the same substance, in test [2], the Range % bound was 20-39% and the Range % free is 61-81%.

For the substance “apoE4: human apolipoprotein E4 isoform, also iodinated”, in test [1], the “enhancement of cell association of β-VLDL” value was about 1.7 fold and the “increase of cellular cholesterol content” value is reported as about 1.7 fold. In addition, the cell association in test [1] (2 h) was 39 ng/mg of cell protein. For the same substance, the cell association in test [1] (4 h) is recorded as 65 ng/mg of cell protein. Moreover, in test [2], the Mean % bound turned out to be 59.4%, the Mean % free was 40.6%, the Median % bound is listed as 60% and the Median % free was 40%. For the same substance, in test [2], the Range % free was 30-50%.
